Test results reported in patent US7569549B2, “Isostructural pseudopolymorphs of 9-deoxo-9a-aza-9a-methyl-9a-homoerythromycin A” (Pliva Hrvatska D.O.O., priority 2002, dated 2009).

Legend:
[1] = Intrinsic dissolution rate (Intrinsic Dissolution Tester, Van Kel Type); type: physicochemical; conditions: pH 3 and pH 6, 37° C.
Method: In addition to the above data, the intrinsic dissolution rates (IDR's) for the new pseudopolymorph of the invention and the commercial dihydrate, at pH 3 and pH 6 and 37° C., were determined by Intrinsic Dissolution Tester, Van Kel Type.

[2] = Dissolution profiles by USP Method 2 (PharmaTest Dissolution Tester), dissolved content by HPLC; type: physicochemical
Method: The comparative dissolution profiles were determined by USP Method 2, PharmaTest Dissolution Tester, PTW SII; the content of dissolved 9-deoxo-9a-aza-9a-methyl-9a-homoerythromycin A was measured by HPLC. The data thus obtained are set forth in Table 6 below, and plotted in FIGS. 17 and 18.
The comparative dissolution profiles were determined by USP Method 2, PharmaTest Dissolution Tester, PTW SII; the content of dissolved 9-deoxo-9a-aza-9a-methyl-9a-homoerythromycin A was measured by HPLC. The data thus obtained are set forth in Table 9 below, and plotted in FIG. 22.

in vivo = conditions: rat, 50 mg/kg
Source text: 32 animals were studied using a cross-over experimental design experiment. A non-compartmental analysis was used to determine the concentrations of the respective materials in whole blood and plasma as a function of time.

[3] = Solid state stability by X-ray powder diffraction at varied humidity and temperature; type: physicochemical; conditions: 5% RH to 75% RH; 30° C. to 75° C.
Method: The solid state stability of the 9-deoxo-9a-aza-9a-methyl-9a-homoerythromycin A pseudopolymorph Ia (x=1, y=0) was determined by measuring the solid state x-ray powder diffraction pattern for this material at four different percent relative humidities (% RH), ranging from 5% RH to 75% RH, and at five different temperatures, increasing from 30° C. to 75° C. using Philips X'PertPRO powder X-ray diffractometer equipped with Anton Paar TTK-100 humidity camera used for non-ambient data collection.

[4] = Similarity factors (f2) calculated for the dissolution profiles; type: physicochemical
Method: In order to further assess the data from Table 6, similarity factors (f2) were calculated according to the method described in Note for Guidance on the Investigation of Bioavailability and Bioequivalence (EMEA, December 1998, London) for the dissolution profiles of the two species (9-deoxo-9a-aza-9a-methyl-9a-homoerythromycin A, pseudopolymorph Ia of the present invention, and commercial 9-deoxo-9a-aza-9a-methyl-9a-homoerythromycin A dihydrate).

CC[C@H]1OC(=O)[C@H](C)[C@@H](O[C@H]2C[C@@](C)(OC)[C@@H](O)[C@H](C)O2)[C@H](C)[C@@H](O[C@@H]2O[C@H](C)C[C@H](N(C)C)[C@H]2O)[C@](C)(O)C[C@@H](C)CN(C)[C@H](C)[C@@H](O)[C@]1(C)O [Pseudopolymorph Ia, 9-deoxo-9a-aza-9a-methyl-9a-homoerythromycin A]
Intrinsic dissolution rate (IDR) [1]: 2.5-2.8 mg min^−1 cm^−2
IDR higher than the IDR of the dihydrate ([1]; relative to dihydrate): 40 to 50%
Percent dissolved ([2]; pH 3, 37° C., 5 minutes, listed as Ia (Example 19, Batch 1)): 25.1%
Percent dissolved ([2]; pH 3, 37° C., 5 minutes, listed as Ia (Example 19, Batch 3)): 21.1%
Percent dissolved ([2]; pH 3, 37° C., 5 minutes, listed as Ia (Example 19 Batch 2)): 18.5%
Percent dissolved ([2]; pH 3, 37° C., 10 minutes, listed as Ia (Example 19, Batch 1)): 37.1%
Percent dissolved ([2]; pH 3, 37° C., 10 minutes, listed as Ia (Example 19, Batch 3)): 32.4%
Percent dissolved ([2]; pH 3, 37° C., 10 minutes, listed as Ia (Example 19 Batch 2)): 30.7%
Percent dissolved ([2]; pH 3, 37° C., 20 minutes, listed as Ia (Example 19, Batch 1)): 45.8%
Percent dissolved ([2]; pH 3, 37° C., 20 minutes, listed as Ia (Example 19, Batch 3)): 43.3%
Percent dissolved ([2]; pH 3, 37° C., 20 minutes, listed as Ia (Example 19 Batch 2)): 45.1%
Percent dissolved ([2]; pH 3, 37° C., 45 minutes, listed as Ia (Example 19, Batch 1)): 55.5%
Percent dissolved ([2]; pH 3, 37° C., 45 minutes, listed as Ia (Example 19, Batch 3)): 56%
Percent dissolved ([2]; pH 3, 37° C., 45 minutes, listed as Ia (Example 19 Batch 2)): 60.9%
Percent dissolved ([2]; pH 3, 37° C., 60 minutes, listed as Ia (Example 19, Batch 1)): 58.3%
Percent dissolved ([2]; pH 3, 37° C., 60 minutes, listed as Ia (Example 19, Batch 3)): 61.1%
Percent dissolved ([2]; pH 3, 37° C., 60 minutes, listed as Ia (Example 19 Batch 2)): 64.8%
Percent dissolved ([2]; pH 3, 37° C., 90 minutes, listed as Ia (Example 19, Batch 1)): 62.9%
Percent dissolved ([2]; pH 3, 37° C., 90 minutes, listed as Ia (Example 19, Batch 3)): 64.7%
Percent dissolved ([2]; pH 3, 37° C., 90 minutes, listed as Ia (Example 19 Batch 2)): 70%
Percent dissolved ([2]; pH 6, 37° C., 5 minutes, listed as Ia (Example 19, Batch 1)): 67.0%
Percent dissolved ([2]; pH 6, 37° C., 5 minutes, listed as Ia (Example 19, Batch 3)): 70.2%
Percent dissolved ([2]; pH 6, 37° C., 5 minutes, listed as Ia (Example 19 Batch 2)): 71.7%
Percent dissolved ([2]; pH 6, 37° C., 10 minutes, listed as Ia (Example 19, Batch 1)): 73.2%
Percent dissolved ([2]; pH 6, 37° C., 10 minutes, listed as Ia (Example 19, Batch 3)): 77.3%
Percent dissolved ([2]; pH 6, 37° C., 10 minutes, listed as Ia (Example 19 Batch 2)): 81.4%
Percent dissolved ([2]; pH 6, 37° C., 20 minutes, listed as Ia (Example 19, Batch 1)): 76.7%
Percent dissolved ([2]; pH 6, 37° C., 20 minutes, listed as Ia (Example 19, Batch 3)): 77%
Percent dissolved ([2]; pH 6, 37° C., 20 minutes, listed as Ia (Example 19 Batch 2)): 81.6%
Percent dissolved ([2]; pH 6, 37° C., 45 minutes, listed as Ia (Example 19, Batch 1)): 76.7%
Percent dissolved ([2]; pH 6, 37° C., 45 minutes, listed as Ia (Example 19, Batch 3)): 77.6%
Percent dissolved ([2]; pH 6, 37° C., 45 minutes, listed as Ia (Example 19 Batch 2)): 80.4%
Percent dissolved ([2]; pH 6, 37° C., 60 minutes, listed as Ia (Example 19, Batch 1)): 74.5%
Percent dissolved ([2]; pH 6, 37° C., 60 minutes, listed as Ia (Example 19, Batch 3)): 78%
Percent dissolved ([2]; pH 6, 37° C., 60 minutes, listed as Ia (Example 19 Batch 2)): 79.9%
Percent dissolved ([2]; pH 6, 37° C., 90 minutes, listed as Ia (Example 19, Batch 1)): 75.8%
Percent dissolved ([2]; pH 6, 37° C., 90 minutes, listed as Ia (Example 19, Batch 3)): 79.2%
Percent dissolved ([2]; pH 6, 37° C., 90 minutes, listed as Ia (Example 19 Batch 2)): 80%
AUC(0-12) higher relative to the commercial dihydrate (in vivo): approximately 20%
AUC(0-48) (in vivo): 35659.0 nghr/ml
Tmax (in vivo): 2 h
Solid state stability (phase transitions by x-ray powder diffraction) [3]: no phase-transitions occur
Similarity factor (f2) ([4]; Batch 1 vs. Batch 2 of Example 19, pH = 3): 61.3
Similarity factor (f2) ([4]; Batch 1 vs. Batch 2 of Example 19, pH = 6): 63.1
Similarity factor (f2) ([4]; Batch 1 vs. Batch 3 of Example 19, pH = 3): 74.7
Similarity factor (f2) ([4]; Batch 1 vs. Batch 3 of Example 19, pH = 6): 75.4
Similarity factor (f2) ([4]; Batch 2 vs. Batch 3 of Example 19, pH = 3): 71.3
Similarity factor (f2) ([4]; Batch 2 vs. Batch 3 of Example 19, pH = 6): 75.3
Similarity factor (f2) ([4]; Dihydrate vs. Batch 1 of Example 19, pH = 3): 28.6
Similarity factor (f2) ([4]; Dihydrate vs. Batch 1 of Example 19, pH = 6): 25
Similarity factor (f2) ([4]; Dihydrate vs. Batch 2 of Example 19, pH = 3): 27.5
Similarity factor (f2) ([4]; Dihydrate vs. Batch 2 of Example 19, pH = 6): 22.2
Similarity factor (f2) ([4]; Dihydrate vs. Batch 3 of Example 19, pH = 3): 29.4
Similarity factor (f2) ([4]; Dihydrate vs. Batch 3 of Example 19, pH = 6): 23.7

CC[C@H]1OC(=O)[C@H](C)[C@@H](O[C@H]2C[C@@](C)(OC)[C@@H](O)[C@H](C)O2)C(C)[C@@H](O[C@@H]2O[C@H](C)CC(N(C)C)[C@H]2O)[C@](C)(O)C[C@@H](C)CN(C)[C@H](C)[C@@H](O)[C@]1(C)O (stereo partly shown) [9-deoxo-9a-aza-9a-methyl-9a-homoerythromycin A dihydrate, reference compound]
Intrinsic dissolution rate (IDR) [1]: about 1.8 mg min^−1 cm^−2
Percent dissolved ([2]; pH 3, 37° C., 5 minutes): 3.9%
Percent dissolved ([2]; pH 3, 37° C., 10 minutes): 8.1%
Percent dissolved ([2]; pH 3, 37° C., 20 minutes): 14.6%
Percent dissolved ([2]; pH 3, 37° C., 45 minutes): 26.7%
Percent dissolved ([2]; pH 3, 37° C., 60 minutes): 33.3%
Percent dissolved ([2]; pH 3, 37° C., 90 minutes): 39.1%
Percent dissolved ([2]; pH 6, 37° C., 5 minutes): 14.5%
Percent dissolved ([2]; pH 6, 37° C., 10 minutes): 27.3%
Percent dissolved ([2]; pH 6, 37° C., 20 minutes): 44.2%
Percent dissolved ([2]; pH 6, 37° C., 45 minutes): 69.1%
Percent dissolved ([2]; pH 6, 37° C., 60 minutes): 73.7%
Percent dissolved ([2]; pH 6, 37° C., 90 minutes): 75.0%
AUC(0-48) (in vivo): 31696.6 nghr/ml
Tmax (in vivo; po): 2 h

CC[C@H]1OC(=O)[C@H](C)[C@@H](O[C@H]2C[C@@](C)(OC)[C@@H](O)[C@H](C)O2)[C@H](C)[C@@H](O[C@@H]2O[C@H](C)C[C@H](N(C)C)[C@H]2O)[C@](C)(O)C[C@@H](C)CN(C)[C@H](C)[C@@H](O)[C@]1(C)O [Pseudopolymorph Ik, 9-deoxo-9a-aza-9a-methyl-9a-homoerythromycin A]
Percent dissolved ([2]; pH 6, 37° C., 5 minutes, listed as Ik (Example 6)): 99.8%
Percent dissolved ([2]; pH 6, 37° C., 10 minutes, listed as Ik (Example 6)): 99.9%
Percent dissolved ([2]; pH 6, 37° C., 20 minutes, listed as Ik (Example 6)): 97.1%
Percent dissolved ([2]; pH 6, 37° C., 45 minutes, listed as Ik (Example 6)): 97.6%
